Laboratory results published in article PMC8617031, “Development of a BCL-xL and BCL-2 dual degrader with improved anti-leukemic activity,” (Nature Communications, 2021).
Where “and” joins values, the source holds several entries; their conditions need not be identical. Equal values may be shown once. Read-outs that look alike come from different tables or passages of the source.

Columns and labels:
His-tagged BCL-xL = biological target: T1, His-tagged BCL-xL (Homo sapiens, UniProt Q07817); assay: AlphaScreen competitive binary binding, BCL-xL (biotin-BAD peptide)
T1 construct: purchased Sigma-Aldrich SRP0187
T1 sequence (Q07817 whole entry): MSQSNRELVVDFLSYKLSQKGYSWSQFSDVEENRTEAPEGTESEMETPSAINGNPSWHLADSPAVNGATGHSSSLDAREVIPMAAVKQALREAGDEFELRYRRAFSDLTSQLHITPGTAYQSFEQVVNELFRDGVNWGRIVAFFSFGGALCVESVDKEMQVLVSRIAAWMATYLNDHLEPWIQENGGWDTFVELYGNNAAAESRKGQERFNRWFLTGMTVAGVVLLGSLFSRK
Summary of the method: (§1)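 His-tagged BCL-xL (0.5 nM) with 2 nM biotin-BAD peptide, or BCL-2 (1 nM) with 10 nM biotin-BIM peptide, was incubated 2 h with serially diluted compound in HEPES pH 7.5 buffer containing NaCl, BSA and Tween-80. AlphaScreen signal came from His-acceptor and streptavidin-donor beads at 20 µg/ml each. Ki was fitted by competitive binding using measured Kd per protein–peptide pair.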

His-tagged BCL-2 = biological target: T2, His-tagged BCL-2 (Homo sapiens, UniProt P10415); assay: AlphaScreen competitive binary binding, BCL-2 (biotin-BIM peptide); conditions: for Alpha signal normalised to Maximum/Minimum (inhibition): in % (unit assumed)
T2 construct: purchased Sigma-Aldrich SRP0186
T2 sequence (P10415 whole entry): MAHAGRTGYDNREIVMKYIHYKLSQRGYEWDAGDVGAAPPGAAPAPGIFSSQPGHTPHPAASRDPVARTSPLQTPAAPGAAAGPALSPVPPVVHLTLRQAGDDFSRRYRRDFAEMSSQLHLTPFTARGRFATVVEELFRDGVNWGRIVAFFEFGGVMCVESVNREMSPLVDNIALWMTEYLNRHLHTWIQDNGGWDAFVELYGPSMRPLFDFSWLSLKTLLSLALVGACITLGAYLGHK
Summary of the method: as §1

Cc1ncsc1-c1ccc([C@H](C)NC(=O)[C@@H]2C[C@@H](O)CN2C(=O)[C@@H](NC(=O)CCCCCC(=O)N2CCN(CC[C@H](CSc3ccccc3)Nc3ccc(S(=O)(=O)NC(=O)c4ccc(N5CCN(CC6=C(c7ccc(Cl)cc7)CCC(C)(C)C6)CC5)cc4)cc3S(=O)(=O)C(F)(F)F)CC2)C(C)(C)C)cc1 [DT2216]
IC50 (His-tagged BCL-xL; BCL-xL Rep-1): 120 nM
Ki (His-tagged BCL-xL; BCL-xL Rep-1): 5.4 nM
Alpha signal normalised to Maximum/Minimum (inhibition) (His-tagged BCL-xL; BCL-xL Rep-1, 0.000305176 uM, 0.000305176 µM): 20.1617
inhibition at 0.000305176 µM (His-tagged BCL-xL; BCL-xL Rep-1, 0.000305176 uM, read-out: Alpha signal normalised to Maximum/Minimum (inhibition)): 18.1%
Alpha signal normalised to Maximum/Minimum (inhibition) (His-tagged BCL-xL; BCL-xL Rep-1, 0.0012207 uM, 0.0012207 µM): 17.8409
inhibition at 0.0012207 µM (His-tagged BCL-xL; BCL-xL Rep-1, 0.0012207 uM, read-out: Alpha signal normalised to Maximum/Minimum (inhibition)): 21.3%
Alpha signal normalised to Maximum/Minimum (inhibition) (His-tagged BCL-xL; BCL-xL Rep-1, 0.00488281 uM, 0.00488281 µM): 23.949
inhibition at 0.00488281 µM (His-tagged BCL-xL; BCL-xL Rep-1, 0.00488281 uM, read-out: Alpha signal normalised to Maximum/Minimum (inhibition)): 23.9%
Alpha signal normalised to Maximum/Minimum (inhibition) (His-tagged BCL-xL; BCL-xL Rep-1, 0.0195312 uM, 0.0195312 µM): 38.2381
inhibition at 0.0195312 µM (His-tagged BCL-xL; BCL-xL Rep-1, 0.0195312 uM, read-out: Alpha signal normalised to Maximum/Minimum (inhibition)): 39%
Alpha signal normalised to Maximum/Minimum (inhibition) (His-tagged BCL-xL; BCL-xL Rep-1, 0.078125 uM, 0.078125 µM): 43.5761
inhibition at 0.078125 µM (His-tagged BCL-xL; BCL-xL Rep-1, 0.078125 uM, read-out: Alpha signal normalised to Maximum/Minimum (inhibition)): 42.3%
Alpha signal normalised to Maximum/Minimum (inhibition) (His-tagged BCL-xL; BCL-xL Rep-1, 0.3125 uM, 0.3125 µM): 88.5079
inhibition at 0.3125 µM (His-tagged BCL-xL; BCL-xL Rep-1, 0.3125 uM, read-out: Alpha signal normalised to Maximum/Minimum (inhibition)): 85.7%
Alpha signal normalised to Maximum/Minimum (inhibition) (His-tagged BCL-xL; BCL-xL Rep-1, 1.25 uM, 1.25 µM): 97.7177
inhibition at 1.25 µM (His-tagged BCL-xL; BCL-xL Rep-1, 1.25 uM, read-out: Alpha signal normalised to Maximum/Minimum (inhibition)): 96.9%
Alpha signal normalised to Maximum/Minimum (inhibition) (His-tagged BCL-xL; BCL-xL Rep-1, 5 uM, 5 µM): 99.5511
inhibition at 5 µM (His-tagged BCL-xL; BCL-xL Rep-1, 5 uM, read-out: Alpha signal normalised to Maximum/Minimum (inhibition)): 99.5%
Alpha signal (raw counts) (His-tagged BCL-xL; BCL-xL Rep-1, plate row B, 5 uM): 27230 and 26015
Alpha signal (raw counts) (His-tagged BCL-xL; BCL-xL Rep-1, plate row C, 1.25 uM): 64394 and 52279
Alpha signal (raw counts) (His-tagged BCL-xL; BCL-xL Rep-1, plate row D, 0.3125 uM): 224421 and 184214
Alpha signal (raw counts) (His-tagged BCL-xL; BCL-xL Rep-1, plate row E, 0.078125 uM): 846185 and 827887
Alpha signal (raw counts) (His-tagged BCL-xL; BCL-xL Rep-1, plate row F, 0.0195312 uM): 894074 and 904357
Alpha signal (raw counts) (His-tagged BCL-xL; BCL-xL Rep-1, plate row G, 0.00488281 uM): 1110366 and 1109056
Alpha signal (raw counts) (His-tagged BCL-xL; BCL-xL Rep-1, plate row H, 0.0012207 uM): 1147150 and 1196559
Alpha signal (raw counts) (His-tagged BCL-xL; BCL-xL Rep-1, plate row I, 0.000305176 uM): 1192890 and 1163311
Alpha signal (raw counts) (His-tagged BCL-xL; BCL-xL Rep-1, plate row J, 7.62939e-5 uM): 1153277 and 1055277
Alpha signal (raw counts) (His-tagged BCL-xL; BCL-xL Rep-1, plate row K, 1.90735e-5 uM): 1140776 and 1328684
Alpha signal (raw counts) (His-tagged BCL-xL; BCL-xL Rep-2, 7.62939e-5 uM): 1377571 and 1338961
Alpha signal normalised to Maximum/Minimum (inhibition) (His-tagged BCL-xL; BCL-xL Rep-2, 0.0012207 uM, 0.0012207 µM): 12.2985
inhibition at 0.0012207 µM (His-tagged BCL-xL; BCL-xL Rep-2, 0.0012207 uM, read-out: Alpha signal normalised to Maximum/Minimum (inhibition)): 16.2%
Alpha signal normalised to Maximum/Minimum (inhibition) (His-tagged BCL-xL; BCL-xL Rep-2, 0.00488281 uM, 0.00488281 µM): 25.1578
inhibition at 0.00488281 µM (His-tagged BCL-xL; BCL-xL Rep-2, 0.00488281 uM, read-out: Alpha signal normalised to Maximum/Minimum (inhibition)): 22.8%
Alpha signal normalised to Maximum/Minimum (inhibition) (His-tagged BCL-xL; BCL-xL Rep-2, 0.0195312 uM, 0.0195312 µM): 25.456
inhibition at 0.0195312 µM (His-tagged BCL-xL; BCL-xL Rep-2, 0.0195312 uM, read-out: Alpha signal normalised to Maximum/Minimum (inhibition)): 35.3%
Alpha signal normalised to Maximum/Minimum (inhibition) (His-tagged BCL-xL; BCL-xL Rep-2, 0.078125 uM, 0.078125 µM): 57.5037
inhibition at 0.078125 µM (His-tagged BCL-xL; BCL-xL Rep-2, 0.078125 uM, read-out: Alpha signal normalised to Maximum/Minimum (inhibition)): 60.5%
Alpha signal normalised to Maximum/Minimum (inhibition) (His-tagged BCL-xL; BCL-xL Rep-2, 0.3125 uM, 0.3125 µM): 86.3518
inhibition at 0.3125 µM (His-tagged BCL-xL; BCL-xL Rep-2, 0.3125 uM, read-out: Alpha signal normalised to Maximum/Minimum (inhibition)): 86.5%
Alpha signal normalised to Maximum/Minimum (inhibition) (His-tagged BCL-xL; BCL-xL Rep-2, 1.25 uM, 1.25 µM): 97.814
inhibition at 1.25 µM (His-tagged BCL-xL; BCL-xL Rep-2, 1.25 uM, read-out: Alpha signal normalised to Maximum/Minimum (inhibition)): 98.7%
Alpha signal normalised to Maximum/Minimum (inhibition) (His-tagged BCL-xL; BCL-xL Rep-2, 5 uM, 5 µM): 100.647
inhibition at 5 µM (His-tagged BCL-xL; BCL-xL Rep-2, 5 uM, read-out: Alpha signal normalised to Maximum/Minimum (inhibition)): 100%
Alpha signal (raw counts) (His-tagged BCL-xL; BCL-xL Rep-2, plate row B, 5 uM): 20174 and 14292
Alpha signal (raw counts) (His-tagged BCL-xL; BCL-xL Rep-2, plate row C, 1.25 uM): 40445 and 53326
Alpha signal (raw counts) (His-tagged BCL-xL; BCL-xL Rep-2, plate row D, 0.3125 uM): 209031 and 211248
Alpha signal (raw counts) (His-tagged BCL-xL; BCL-xL Rep-2, plate row E, 0.078125 uM): 567789 and 608705
Alpha signal (raw counts) (His-tagged BCL-xL; BCL-xL Rep-2, plate row F, 0.0195312 uM): 914961 and 1050246
Alpha signal (raw counts) (His-tagged BCL-xL; BCL-xL Rep-2, plate row G, 0.00488281 uM): 1086158 and 1054354
Alpha signal (raw counts) (His-tagged BCL-xL; BCL-xL Rep-2, plate row H, 0.0012207 uM): 1178429 and 1231525
Alpha signal (raw counts) (His-tagged BCL-xL; BCL-xL Rep-2, plate row I, 0.000305176 uM): 1409371 and 1266044
Alpha signal (raw counts) (His-tagged BCL-xL; BCL-xL Rep-2, plate row K, 1.90735e-5 uM): 1319490 and 1464517
Ki (His-tagged BCL-xL; BCL-xL, mean of the two replicate values (line without label)): 3.96 nM
Ki (His-tagged BCL-xL; BCL-xL, second value (line without label below Rep-1, apparently Rep-2)): 2.53 nM
Alpha signal normalised to Maximum/Minimum (inhibition) (His-tagged BCL-2; BCL-2 Rep-1, 0.000305176 uM, 0.000305176 µM): 11.9513
inhibition at 0.000305176 µM (His-tagged BCL-2; BCL-2 Rep-1, 0.000305176 uM, read-out: Alpha signal normalised to Maximum/Minimum (inhibition)): 15.4%
Alpha signal normalised to Maximum/Minimum (inhibition) (His-tagged BCL-2; BCL-2 Rep-1, 0.00488281 uM, 0.00488281 µM): 42.8592
inhibition at 0.00488281 µM (His-tagged BCL-2; BCL-2 Rep-1, 0.00488281 uM, read-out: Alpha signal normalised to Maximum/Minimum (inhibition)): 43%
